From patent US10047078B2, “Aminothiazole compounds” (National Health Research Institutes, priority 2016, dated 2018)

What was measured:
32D-ITD/F691L cells = test: MTS cell viability, 32D cells expressing FLT3-ITD mutant; assay type: cell-based, Murine; conditions: Mus musculus, 32D, 72 h, 72-h incubation
Source text: (§1) The five leukemic 32D cell lines were purchased from American Type Culture Collection (ATCC, Manassas, Va., USA). Murine pro-B lymphocyte 32D cell lines were stably transfected with expression vectors that encoded human FLT3 containing an ITD mutation (32D-ITD cells), ITD and D835Y (32D-ITD/D835Y cells), ITD and D835V (32D-ITD/D835V cells), ITD and D835F (32D-ITD/D835F cells), and ITD and F691L (32D-ITD/F691L cells) mutations, which lead to constitutive activation of the FLT3 downstream signaling proteins. The cell viability was assessed with the MTS assay described in PLoS One, 2014, 9, e97116. 32D-ITD/D835Y, 32D-ITD/D835V, 32D-ITD/D835F, 32D-ITD/F691L, and 32D-ITD/F691I cells were seeded in 96-well plates at 1×10^4 cells/mL (100 μL per well) for 24-h incubation. Test compounds (at various concentrations in dimethyl sulfoxide (DMSO) were subsequently added to the culture medium for 72-h incubation. The cell viability was determined by the MTS assay (Promega, Madison, Wis., USA).

32D-ITD/F691I cells = test: as above; assay type: cell-based, Murine; conditions: Mus musculus, 32D, 72 h, 72-h incubation
Source text: as §1

32D-ITD/D835F cells = test: as above; assay type: cell-based, Murine; conditions: 72-h incubation
Source text: as §1

[1] = system: xenografts colo205 nude mice; test: In vivo toxicity study, colo205 model
Procedure: Male nude mice (Nu-Fox1^nu) of 8 weeks old were purchased from BioLASCO (Taipei, Taiwan, R.O.C.). Human colorectal Colo205, pancreatic Mia-PaCa 2 tumor cells or MOLM-13, 32D-ITD/D835Y leukemia cells were inoculated subcutaneously at 1×10^6 cells each in the nude mice. […] The tumor cells grow as xenograft tumors and the tumor size reached approximately 200-250 mm^3 in the nude mice ready for dose treatments. Test compounds were dissolved in 20% 2-hydroxypropy-β-cyclodextrin individually for oral gavage administrations to the nude mice. The tumor-bearing mice were treated with test compounds at various doses, 5 times a week for 2 weeks. Tumor sizes were measured by an electronic caliper and calculated with the formula: tumor size=length×width^2/2. Tumor size and animal body weight were measured twice a week before and after the tumor cell inoculation throughout the observation period. Uses of animals and experimental procedures thereof were approved by the Institutional Animal Care and Use Committee (IACUC) of the National Health Research Institutes.
Nine weeks old athymic nu/nu nude mice were administered orally at a once daily dose of 25, 50, 100, or 150 mg/kg on days 1-5 and 8-12.

Colo205 xenografts = test: Xenograft efficacy, Colo205 model; assay type: in vivo; conditions: Colo205 xenografts in nude mice; PO 50 mg/kg, 5 times a week for 2 weeks; 50 mg/kg
Procedure: Male nude mice (Nu-Fox1^nu) of 8 weeks old were purchased from BioLASCO (Taipei, Taiwan, R.O.C.). Human colorectal Colo205, pancreatic Mia-PaCa 2 tumor cells or MOLM-13, 32D-ITD/D835Y leukemia cells were inoculated subcutaneously at 1×10^6 cells each in the nude mice. All human cancer cells were detected as free of Mycoplasma spp before they were injected into animals. The tumor cells grow as xenograft tumors and the tumor size reached approximately 200-250 mm^3 in the nude mice ready for dose treatments. Test compounds were dissolved in 20% 2-hydroxypropy-β-cyclodextrin individually for oral gavage administrations to the nude mice. The tumor-bearing mice were treated with test compounds at various doses, 5 times a week for 2 weeks. Tumor sizes were measured by an electronic caliper and calculated with the formula: tumor size=length×width^2/2. Tumor size and animal body weight were measured twice a week before and after the tumor cell inoculation throughout the observation period. Uses of animals and experimental procedures thereof were approved by the Institutional Animal Care and Use Committee (IACUC) of the National Health Research Institutes.

ABL1 = ABL1 (Homo sapiens, UniProt P00519); test: SelectScreen biochemical kinase profiling; assay type: binding; conditions: 100 nM, read-out: Inhibition (% of control) at 100 nM
Procedure: (§2) Kinase inhibition data were obtained from SelectScreen® Biochemical Kinase Profiling Service.
(§3) More specifically, test compounds were screened in 160 nL of a 1% DMSO solution in the well of a 384-well plate; kinase/antibody mixtures (8 μL) were diluted to a 2-fold working concentration in an appropriate kinase buffer (3.84 μL) and a 4-fold AlexaFluor® labeled tracer (4 μL) was prepared in the kinase buffer; incubation of test solutions was conducted at room is temperature for 60 minutes; and readout on a fluorescence plate reader was recorded and analyzed.

ABL1 T315I = ABL1 T315I (Homo sapiens, UniProt P00519, T315I); test: SelectScreen biochemical kinase profiling; assay type: binding; conditions: 100 nM, read-out: Inhibition (% of control) at 100 nM
Procedure: as §2, §3

RET = RET (Homo sapiens, UniProt P07949); test: SelectScreen biochemical kinase profiling; assay type: binding; conditions: 100 nM, read-out: Inhibition (% of control) at 100 nM
Procedure: as §2, §3

KIT = KIT (Homo sapiens, UniProt P10721); test: SelectScreen biochemical kinase profiling; assay type: binding
KIT, sequence (P10721 26-976): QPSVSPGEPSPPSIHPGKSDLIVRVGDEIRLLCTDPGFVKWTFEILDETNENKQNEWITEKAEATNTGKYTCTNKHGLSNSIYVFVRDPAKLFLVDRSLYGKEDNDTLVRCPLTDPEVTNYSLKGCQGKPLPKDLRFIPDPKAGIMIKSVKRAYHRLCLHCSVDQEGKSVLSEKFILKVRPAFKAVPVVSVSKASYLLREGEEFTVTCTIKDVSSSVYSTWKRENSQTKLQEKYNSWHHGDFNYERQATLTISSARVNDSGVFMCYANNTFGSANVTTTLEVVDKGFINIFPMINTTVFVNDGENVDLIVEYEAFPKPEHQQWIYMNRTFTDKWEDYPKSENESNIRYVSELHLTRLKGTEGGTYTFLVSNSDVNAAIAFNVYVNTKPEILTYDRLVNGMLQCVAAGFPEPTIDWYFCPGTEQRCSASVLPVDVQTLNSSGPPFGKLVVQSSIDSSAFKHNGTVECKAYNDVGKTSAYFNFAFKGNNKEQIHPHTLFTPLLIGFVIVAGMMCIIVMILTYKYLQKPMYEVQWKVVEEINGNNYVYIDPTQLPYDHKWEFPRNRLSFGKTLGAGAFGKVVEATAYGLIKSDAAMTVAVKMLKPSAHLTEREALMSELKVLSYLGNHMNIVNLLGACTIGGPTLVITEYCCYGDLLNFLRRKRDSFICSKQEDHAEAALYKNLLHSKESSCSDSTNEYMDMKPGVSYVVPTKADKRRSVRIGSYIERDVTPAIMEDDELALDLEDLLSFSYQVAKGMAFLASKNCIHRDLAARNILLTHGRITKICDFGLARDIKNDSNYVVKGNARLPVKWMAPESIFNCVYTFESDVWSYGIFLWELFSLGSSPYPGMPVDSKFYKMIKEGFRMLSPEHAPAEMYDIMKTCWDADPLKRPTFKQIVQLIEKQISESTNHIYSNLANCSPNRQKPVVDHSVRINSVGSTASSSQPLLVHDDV
Procedure: as §2, §3

SRC = SRC (Homo sapiens, UniProt P12931); test: SelectScreen biochemical kinase profiling; assay type: binding
SRC, sequence (P12931 whole entry): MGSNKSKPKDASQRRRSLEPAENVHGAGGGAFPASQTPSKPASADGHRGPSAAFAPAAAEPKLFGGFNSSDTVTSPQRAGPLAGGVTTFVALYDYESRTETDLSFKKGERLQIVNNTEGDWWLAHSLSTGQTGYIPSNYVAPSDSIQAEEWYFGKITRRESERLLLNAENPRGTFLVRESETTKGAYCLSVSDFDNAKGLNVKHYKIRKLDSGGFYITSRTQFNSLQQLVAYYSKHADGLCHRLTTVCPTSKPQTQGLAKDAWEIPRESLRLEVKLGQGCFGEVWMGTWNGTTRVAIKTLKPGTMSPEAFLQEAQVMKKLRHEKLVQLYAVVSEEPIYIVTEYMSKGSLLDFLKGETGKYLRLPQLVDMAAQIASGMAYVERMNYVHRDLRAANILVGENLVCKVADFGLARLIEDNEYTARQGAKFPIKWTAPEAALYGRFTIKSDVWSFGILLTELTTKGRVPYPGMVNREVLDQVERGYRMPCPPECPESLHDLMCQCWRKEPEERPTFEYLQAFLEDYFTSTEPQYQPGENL
Procedure: as §2, §3

VEGFR2 = VEGFR2 (Homo sapiens, UniProt P35968); test: SelectScreen biochemical kinase profiling; assay type: binding
VEGFR2, sequence (P35968 20-1356): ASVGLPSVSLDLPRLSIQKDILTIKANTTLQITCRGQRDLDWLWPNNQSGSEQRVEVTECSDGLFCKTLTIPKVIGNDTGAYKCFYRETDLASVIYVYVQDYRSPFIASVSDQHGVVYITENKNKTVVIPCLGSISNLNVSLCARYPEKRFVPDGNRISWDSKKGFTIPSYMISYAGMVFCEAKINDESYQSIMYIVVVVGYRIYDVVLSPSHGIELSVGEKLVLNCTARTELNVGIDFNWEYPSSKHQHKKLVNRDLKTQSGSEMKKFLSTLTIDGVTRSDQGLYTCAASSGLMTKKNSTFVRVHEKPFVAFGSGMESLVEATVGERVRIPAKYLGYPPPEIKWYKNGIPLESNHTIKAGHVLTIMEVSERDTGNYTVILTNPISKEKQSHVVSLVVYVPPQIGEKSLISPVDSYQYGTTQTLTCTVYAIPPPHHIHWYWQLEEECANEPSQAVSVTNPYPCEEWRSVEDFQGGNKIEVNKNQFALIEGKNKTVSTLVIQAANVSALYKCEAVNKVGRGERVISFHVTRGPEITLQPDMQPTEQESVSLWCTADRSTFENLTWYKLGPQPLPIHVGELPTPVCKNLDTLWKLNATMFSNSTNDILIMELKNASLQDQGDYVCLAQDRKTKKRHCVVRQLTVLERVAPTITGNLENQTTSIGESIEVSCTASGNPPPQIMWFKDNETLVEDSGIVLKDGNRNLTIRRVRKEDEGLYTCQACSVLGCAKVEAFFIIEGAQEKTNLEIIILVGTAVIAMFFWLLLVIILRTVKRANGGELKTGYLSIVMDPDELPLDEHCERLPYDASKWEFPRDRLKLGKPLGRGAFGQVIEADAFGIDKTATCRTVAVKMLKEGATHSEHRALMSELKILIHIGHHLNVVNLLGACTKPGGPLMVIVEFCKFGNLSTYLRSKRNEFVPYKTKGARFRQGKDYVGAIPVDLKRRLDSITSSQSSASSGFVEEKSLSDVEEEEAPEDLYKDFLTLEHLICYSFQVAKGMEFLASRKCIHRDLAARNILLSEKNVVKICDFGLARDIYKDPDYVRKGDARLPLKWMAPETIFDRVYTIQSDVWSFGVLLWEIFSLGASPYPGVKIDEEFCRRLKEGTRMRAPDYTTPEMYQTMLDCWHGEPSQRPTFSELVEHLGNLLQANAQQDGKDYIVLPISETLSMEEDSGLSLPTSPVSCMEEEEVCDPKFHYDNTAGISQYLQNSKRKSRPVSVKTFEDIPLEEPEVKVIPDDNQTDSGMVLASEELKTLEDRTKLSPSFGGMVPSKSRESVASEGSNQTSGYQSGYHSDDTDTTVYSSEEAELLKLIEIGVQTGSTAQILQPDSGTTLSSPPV
Procedure: as §2, §3

PDGFR B = PDGFR B (Homo sapiens, UniProt P09619); test: SelectScreen biochemical kinase profiling; assay type: binding
PDGFR B, sequence (P09619 33-1106): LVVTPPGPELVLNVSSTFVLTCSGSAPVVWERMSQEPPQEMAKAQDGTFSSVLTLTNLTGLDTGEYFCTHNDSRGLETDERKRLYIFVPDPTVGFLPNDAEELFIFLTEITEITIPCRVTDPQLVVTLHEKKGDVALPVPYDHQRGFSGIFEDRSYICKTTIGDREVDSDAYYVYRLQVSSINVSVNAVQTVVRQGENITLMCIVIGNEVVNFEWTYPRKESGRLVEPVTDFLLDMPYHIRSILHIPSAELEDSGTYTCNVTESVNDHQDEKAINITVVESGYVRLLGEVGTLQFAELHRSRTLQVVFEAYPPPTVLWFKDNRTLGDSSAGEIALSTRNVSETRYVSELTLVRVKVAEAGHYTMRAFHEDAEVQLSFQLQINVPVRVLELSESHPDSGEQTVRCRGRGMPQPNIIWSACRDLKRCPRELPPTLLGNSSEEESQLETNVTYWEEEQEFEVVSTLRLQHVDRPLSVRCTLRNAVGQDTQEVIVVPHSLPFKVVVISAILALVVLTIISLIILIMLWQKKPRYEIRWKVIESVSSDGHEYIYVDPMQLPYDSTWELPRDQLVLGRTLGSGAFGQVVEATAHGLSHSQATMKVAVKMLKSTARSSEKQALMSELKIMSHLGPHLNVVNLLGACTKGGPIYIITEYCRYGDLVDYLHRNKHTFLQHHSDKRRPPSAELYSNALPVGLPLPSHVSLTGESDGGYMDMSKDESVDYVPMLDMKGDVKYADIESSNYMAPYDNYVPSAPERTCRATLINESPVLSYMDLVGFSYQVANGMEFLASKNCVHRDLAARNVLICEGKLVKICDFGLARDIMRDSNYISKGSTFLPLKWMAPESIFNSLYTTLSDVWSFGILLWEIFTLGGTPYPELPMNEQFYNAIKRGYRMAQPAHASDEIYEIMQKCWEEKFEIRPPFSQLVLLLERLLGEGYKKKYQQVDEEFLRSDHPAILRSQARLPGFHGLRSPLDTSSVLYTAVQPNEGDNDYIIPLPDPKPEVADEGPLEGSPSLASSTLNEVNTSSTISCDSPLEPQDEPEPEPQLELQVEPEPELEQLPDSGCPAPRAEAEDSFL
Procedure: as §2, §3

PDGFR A = PDGFR A (Homo sapiens, UniProt P16234); test: SelectScreen biochemical kinase profiling; assay type: binding
PDGFR A, sequence (P16234 24-1089): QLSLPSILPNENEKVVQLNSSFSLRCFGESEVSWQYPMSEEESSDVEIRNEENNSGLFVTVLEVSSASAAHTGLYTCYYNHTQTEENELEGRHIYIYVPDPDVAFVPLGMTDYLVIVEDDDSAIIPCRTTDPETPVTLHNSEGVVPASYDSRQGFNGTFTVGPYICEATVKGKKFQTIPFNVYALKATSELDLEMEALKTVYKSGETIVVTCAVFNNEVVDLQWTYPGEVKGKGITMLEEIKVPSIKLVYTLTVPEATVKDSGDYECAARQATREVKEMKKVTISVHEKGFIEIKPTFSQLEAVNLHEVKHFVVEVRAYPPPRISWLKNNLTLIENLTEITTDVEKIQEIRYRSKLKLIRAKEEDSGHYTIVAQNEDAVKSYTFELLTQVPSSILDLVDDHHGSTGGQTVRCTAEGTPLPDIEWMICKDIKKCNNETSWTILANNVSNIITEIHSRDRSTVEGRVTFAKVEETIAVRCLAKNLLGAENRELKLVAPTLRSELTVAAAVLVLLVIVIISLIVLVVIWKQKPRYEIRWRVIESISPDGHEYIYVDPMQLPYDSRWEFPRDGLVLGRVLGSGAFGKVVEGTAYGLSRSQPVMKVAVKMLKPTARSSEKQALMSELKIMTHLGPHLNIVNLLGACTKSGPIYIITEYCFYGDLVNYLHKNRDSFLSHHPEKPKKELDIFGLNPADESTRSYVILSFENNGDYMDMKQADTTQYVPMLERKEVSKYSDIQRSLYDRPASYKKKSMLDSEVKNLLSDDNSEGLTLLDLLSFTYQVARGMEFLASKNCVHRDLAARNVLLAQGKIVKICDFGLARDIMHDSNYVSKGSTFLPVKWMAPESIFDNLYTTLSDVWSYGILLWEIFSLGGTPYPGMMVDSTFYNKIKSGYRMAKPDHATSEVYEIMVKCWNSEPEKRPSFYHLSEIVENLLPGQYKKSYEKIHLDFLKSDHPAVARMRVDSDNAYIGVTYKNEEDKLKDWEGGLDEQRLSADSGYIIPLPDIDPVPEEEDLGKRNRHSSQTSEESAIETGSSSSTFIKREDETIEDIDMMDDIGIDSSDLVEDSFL
Procedure: as §2, §3

[2] = 100 nM, read-out: Inhibition (% of control) at 100 nM
[3] = read-out: IC50 value (number in the bracket)

CCc1cc(NC(=O)Nc2ccc(-c3cnc(Nc4cc(N5CCN(CCO)CC5)nc(C)n4)s3)cc2)no1 [Compound 1, 1-(5-Ethylisoxazol-3-yl)-3-(4-(2-((6-(4-(2-hydroxyethyl)piperazin-1-yl)-2-methylpyrimidin-4-yl)amino)thiazol-5-yl)phenyl)urea]
GI50 (32D-ITD/F691L cells): 8.5 nM
GI50 (32D-ITD/F691I cells): 45 nM
GI50 (32D-ITD/D835F cells): 3.2 nM
GI50 (32D-ITD/D835F cells; Mus musculus, 32D, 72 h): < 6 nM
Mortality (nude mice n = 6) ([1]; PO 50 mg/kg once daily, 5 on 2 off × 2): 0/6 (50 mg/kg)
Tolerability ([1]; PO once daily, Compounds 1, 2, 3, 4, 6 at 50, 50, 100, 150 and 25 mg/kg): well tolerated
Day 18 TGI (Colo205 xenografts): >80%
inhibition at 0.1 µM (ABL1): 81%
inhibition at 0.1 µM (ABL1 T315I): 65%
inhibition at 0.1 µM (RET): 96%
inhibition at 0.1 µM (KIT; [2]): 66%
IC50 (KIT; [3]): 41 nM
inhibition at 0.1 µM (SRC; [2]): 96%
IC50 (SRC; [3]): 6 nM
inhibition at 0.1 µM (VEGFR2; [2]): 95%
IC50 (VEGFR2; [3]): 19 nM
inhibition at 0.1 µM (PDGFR B; [2]): 82%
IC50 (PDGFR B; [3]): 19 nM
inhibition at 0.1 µM (PDGFR A; [2]): 95%
IC50 (PDGFR A; [3]): 9 nM
